The text below walks through data of US7012080B2, “Imidazopyridine compounds as 5-HT4 receptor agonists” (Pfizer Inc., priority 2002, dated 2006).

For one data set, the target named is T1, 5-HT4 receptor (UniProt Q13639).
T1 construct: Human 5-HT4(d) transfected HEK293 cells were prepared and grown in-house
Kind of data set: 5-HT4 receptor binding ([3H]-GR113808 displacement). The procedure: The 5-HT4 receptor binding affinities of the compounds of this invention are determined by the following procedures. […]
Human 5-HT4(d) transfected HEK293 cells were prepared and grown in-house. The collected cells were suspended in 50 mM HEPES (pH 7.4 at 4° C.) supplemented with protease inhibitor cocktail (Boehringer, 1:1000 dilution) and homogenized using a hand held Polytron PT 1200 disruptor set at full power for 30 sec on ice. The homogenates were centrifuged at 40,000×g at 4° C. for 30 min. The pellets were then resuspended in 50 mM HEPES (pH 7.4 at 4° C.) and centrifuged once more in the same manner. The final pellets were resuspended in an appropriate volume of 50 mM HEPES (pH 7.4 at 25° C.), homogenized, aliquoted and stored at −80° C. until use. An aliquot of membrane fractions was used for protein concentration determination using BCA protein assay kit (PIERCE) and ARVOsx plate reader (Wallac).
For the binding experiments, 25 μl of test compounds were incubated with 25 μl of [^3H]-GR113808 (Amersham, final 0.2 nM) and 150 μl of membrane homogenate and WGA-SPA beads (Amersham) suspension solutions (10 μg protein and 1 mg SPA beads/well) for 60 minutes at room temperature. Nonspecific binding was determined by 1 μM GR113808 (Tocris) at the final concentration. Incubation was terminated by centrifugation at 1000 rpm. Receptor-bound radioactivity was quantified by counting with MicroBeta plate counter (Wallac).

The target of the next data set is T2, HERG potassium channel (Homo sapiens, UniProt Q12809).
T2 construct: expressed in transfected cells; host or cells: HEK293S
T2 sequence (Q12809 whole entry): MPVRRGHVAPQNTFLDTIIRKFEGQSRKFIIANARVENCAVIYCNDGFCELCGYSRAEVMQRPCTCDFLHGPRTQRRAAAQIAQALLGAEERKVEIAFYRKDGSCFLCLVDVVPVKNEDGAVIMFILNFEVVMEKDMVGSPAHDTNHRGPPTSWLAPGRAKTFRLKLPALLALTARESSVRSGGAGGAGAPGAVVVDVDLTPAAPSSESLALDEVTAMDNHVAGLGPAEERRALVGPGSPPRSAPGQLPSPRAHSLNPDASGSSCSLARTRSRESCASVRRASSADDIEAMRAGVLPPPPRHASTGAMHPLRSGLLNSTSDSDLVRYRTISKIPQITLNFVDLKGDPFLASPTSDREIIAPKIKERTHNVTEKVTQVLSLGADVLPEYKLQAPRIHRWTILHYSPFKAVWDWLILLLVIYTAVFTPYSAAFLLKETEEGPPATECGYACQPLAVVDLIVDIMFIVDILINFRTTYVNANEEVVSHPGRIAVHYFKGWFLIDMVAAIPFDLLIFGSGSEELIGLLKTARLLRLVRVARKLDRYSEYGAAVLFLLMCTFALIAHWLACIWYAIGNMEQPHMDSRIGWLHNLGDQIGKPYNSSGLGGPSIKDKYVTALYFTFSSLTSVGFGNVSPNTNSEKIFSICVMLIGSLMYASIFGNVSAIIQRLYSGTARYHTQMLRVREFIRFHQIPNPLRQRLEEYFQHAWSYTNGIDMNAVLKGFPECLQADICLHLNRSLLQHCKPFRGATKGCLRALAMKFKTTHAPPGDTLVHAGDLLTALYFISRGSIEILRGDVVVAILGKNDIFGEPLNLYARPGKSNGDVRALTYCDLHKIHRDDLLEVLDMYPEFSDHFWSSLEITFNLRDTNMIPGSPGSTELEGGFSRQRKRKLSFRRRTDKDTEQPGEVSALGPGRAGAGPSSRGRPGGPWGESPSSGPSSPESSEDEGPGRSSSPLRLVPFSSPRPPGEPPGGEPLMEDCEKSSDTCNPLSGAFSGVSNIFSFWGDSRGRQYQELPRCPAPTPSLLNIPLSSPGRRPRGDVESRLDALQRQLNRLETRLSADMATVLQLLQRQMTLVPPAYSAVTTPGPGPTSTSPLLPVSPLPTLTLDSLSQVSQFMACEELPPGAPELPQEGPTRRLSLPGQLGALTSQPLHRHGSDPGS
The data set can be described thus: Human dofetilide binding ([3H]-dofetilide, HERG transfected HEK293S cell membranes). The note with it: for pKi: [3H]-dofetilide 5 nM, human HERG transfected HEK293S membranes; for TI (Defetilide/5HT4): TI = Dofetilide Binding Ki [μM] / 5HT4 Binding Ki [nM] × 1000. As for the experimental part:
Inhibitory activity at HERG channel was estimated from affinity for HERG type potassium channel was investigated by checking [^3H]dofetilide binding, which can predict inhibitory activity at HERG channel (Eur. J. Pharmacol., 430, pp 147–148, 2001). Selected compounds with low [^3H]dofetilide binding activity were evaluated in IHERG assay to check activity at HERG channel. Introducing a branched chain group to nitrogen atom in piperidine ring contributed to potent 5-HT4 receptor agonist activities with reduced inhibitory activity at HERG channel. The compounds of the present invention may show less toxicity, good absorption, distribution and less drug-drug interaction, and have metabolic stability.
Human HERG transfected HEK293S cells were prepared and grown in-house. The collected cells were suspended in 50 mM Tris-HCl (pH 7.4 at 4° C.) and homogenized using a hand held Polytron PT 1200 disruptor set at full power for 20 sec on ice. The homogenates were centrifuged at 48,000×g at 4° C. for 20 min. The pellets were then resuspended, homogenized, and centrifuged once more in the same manner. The final pellets were resuspended in an appropriate volume of 50 mM Tris-HCl, 10 mM KCl, 1 mM MgCl2 (pH 7.4 at 4° C.), homogenized, aliquoted and stored at −80° C. until use. An aliquot of membrane fractions was used for protein concentration determination using BCA protein assay kit (PIERCE) and ARVOsx plate reader (Wallac).
Binding assays were conducted in a total volume of 200 μl in 96-well plates. Twenty μl of test compounds were incubated with 20 μl of [^3H]-dofetilide (Amersham, final 5 nM) and 160 μl of membrane homogenate (25 μg protein) for 60 minutes at room temperature. Nonspecific binding was determined by 10 μM dofetilide at the final concentration. Incubation was terminated by rapid vacuum filtration over 0.5% presoaked GF/B Betaplate filter using Skatron cell harvester with 50 mM Tris-HCl, 10 mM KCl, 1 mM MgCl2, pH 7.4 at 4° C. The filters were dried, put into sample bags and filled with Betaplate Scint. Radioactivity bound to filter was counted with Wallac Betaplate counter.

A word on the pKi: it is the negative decadic logarithm of the Ki, by convention in mol/L. Lower therefore signals a large Ki. What is called melting point is the temperature, or range, at which the solid turns liquid.

pKi: −log10 of the molar value.

In turn, `COC(C)(C)CN1CCC(CNC(=O)c2cc(Cl)c(N)n3cc(C)nc23)CC1` [Example 5, 5-Amino-6-chloro-2-methyl-N-{[1-(2-methoxy-2-methylpropyl)piperidin-4-yl]methyl}imidazo[1,2-a]pyridine-8-carboxamide] returned a melting point of 211 °C. The same compound showed a pKi on 5-HT4 receptor of 8.70. At HERG potassium channel, the negative logarithm of the Ki (pKi) was less than 4.62.

`CCc1cn2c(N)c(Cl)cc(C(=O)NCC3CCN(CCC(C)(C)C)CC3)c2n1` [Example 3, 5-Amino-6-chloro-N-{[1-(3,3-dimethylbutyl)piperidin-4-yl]methyl}-2-ethylimidazo[1,2-a]pyridine-8-carboxamide] registered a melting point of 234 °C. In addition, the pKi at 5-HT4 receptor was 9.11. Also, on HERG potassium channel, the “TI (Defetilide/5HT4)” value is recorded as 5,000 and the pKi is 5.41.

Regarding `COC(C)(C)CCN1CCC(CNC(=O)c2cc(Cl)c(N)n3cc(C)nc23)CC1` [Example 8, 5-Amino-6-chloro-N-{[1-(3-methoxy-3-methylbutyl)piperidin-4-yl]methyl}2-methylimidazo[1,2-a]pyridine-8-carboxamide], the melting point worked out at 199 °C.

For `COCCCN1CCC(CNC(=O)c2cc(Cl)c(N)n3cc(C)nc23)CC1` [Compound B, reference compound], the pKi on 5-HT4 receptor was 8.34; on HERG potassium channel, 5.22. For the same compound, the “TI (Defetilide/5HT4)” value at HERG potassium channel is on record as 1,300.

The compound `Cc1cn2c(N)ccc(C(=O)NCC3CCN(CC(C)C)CC3)c2n1` [Example 2, 5-Amino-N-[(1-isobutylpiperidi-4-yl)methyl]-2-methylimidazo[1,2-a]pyridine-8-carboxamide] showed a negative logarithm of the Ki (pKi) at 5-HT4 receptor of 8.51. On HERG potassium channel, the “TI (Defetilide/5HT4)” value is reported as 7,800 and the pKi was 4.62.

`CCCCN1CCC(CNC(=O)c2cc(Cl)c(N)n3cc(C)nc23)CC1` [Compound A, reference compound] had a pKi at 5-HT4 receptor of 8.92. Besides, at HERG potassium channel, the “TI (Defetilide/5HT4)” value is reported as 1,900 and the negative-log Ki (pKi) is 5.64.

With `CCc1cn2c(N)c(Cl)cc(C(=O)NCC3CCN(CC(C)(C)OC)CC3)c2n1` [Example 4, 5-Amino-6-chloro-2-ethyl-N-{[1-(2-methoxy-2-methylpropyl)piperidin-4-yl]methyl}imidazo[1,2-a]pyridine-8-carboxamide], the melting point was determined as 211 °C. This compound also showed a pKi at 5-HT4 receptor of 8.92. The same compound gave a negative-log Ki (pKi) on HERG potassium channel of 4.65.

Take `COCC(C)(C)CN1CCC(CNC(=O)c2cc(Cl)c(N)n3cc(C)nc23)CC1` [Example 9, 5-amino-6-chloro-N-{[1-(3-methoxy-2,2-dimethylpropyl)piperidin-4-yl]methyl}2-methylimidazo[1,2-a]pyridine-8-carboxamide]: the melting point is 199 °C.

`Cc1cn2c(N)c(Cl)cc(C(=O)NCC3CCN(CC(C)C)CC3)c2n1` [Example 1, 5-Amino-6-chloro-N-[(1-isobutylpiperidin-4-yl)methyl]-2-methylimidazo[1,2-a]pyridine-8-carboxamide] yielded a melting point of 216 to 219 °C. The negative logarithm of the Ki (pKi) at 5-HT4 receptor is 9.09. Moreover, on HERG potassium channel, the “TI (Defetilide/5HT4)” value is recorded as 7,000 and the negative-log Ki (pKi) is 5.24.
